What was measured:
[1] = test system: third stage larvae of Haemonchus contortus; assay: Haemonchus contortus L3 (HcL3) Assay; assay type: cell-based; conditions: 96 h, read-out: HcL3 Minimum Effective Dose (MED)
[2] = test system: microfilariae of Dirofilaria immitis; assay: Dirofilaria immitis, Microfilaria (DiMF) In vitro Assay; assay type: cell-based; conditions: 72 h, read-out: DiMF Minimum Effective Dose (MED), approximately 72 hours incubation, microfilariae assessed for survival or paralysis

`CC(C)C[C@H]1C(=O)O[C@H](Cc2ccc(Cn3cc(C(C)(C)C)cn3)cc2)C(=O)N(C)[C@@H](CC(C)C)C(=O)O[C@H](C)C(=O)N(C)[C@@H](CC(C)C)C(=O)O[C@H](Cc2ccc(Cn3cccn3)cc2)C(=O)N(C)[C@@H](CC(C)C)C(=O)O[C@H](C)C(=O)N1C` [Example 1a-17, (3S,6R,9S,12R,15S,18R,21S,24R)-6-(4-((1H-pyrazol-1-yl)methyl)benzyl)-18-(4-((4-(tert-butyl)-1H-pyrazol-1-yl)methyl)benzyl)-3,9,15,21-tetraisobutyl-4,10,12,16,22,24-hexamethyl-1,7,13,19-tetraoxa-4,10,16,22-tetraazacyclotetracosan-2,5,8,11,14,17,20,23-octaone] gave a minimal effective concentration [1] of 1 to 10 µM and a minimal effective concentration [2] of 0.001 to 0.01 µM.
Molecule `CC(C)C[C@H]1C(=O)O[C@H](Cc2ccc(Cn3nccc3OC(C)C)cc2)C(=O)N(C)[C@@H](CC(C)C)C(=O)O[C@H](C)C(=O)N(C)[C@@H](CC(C)C)C(=O)O[C@H](Cc2ccc(Cn3ccc(OC(C)C)n3)cc2)C(=O)N(C)[C@@H](CC(C)C)C(=O)O[C@H](C)C(=O)N1C` [Example 1a-35, (3S,6R,9S,12R,15S,18R,21S,24R)-3,9,15,21-tetraisobutyl-6-(4-((3-isopropoxy-1H-pyrazol-1-yl)methyl)benzyl)-18-(4-((5-isopropoxy-1H-pyrazol-1-yl)methyl)benzyl)-4,10,12,16,22,24-hexamethyl-1,7,13,19-tetraoxa-4,10,16,22-tetraazacyclotetracosan-2,5,8,11,14,17,20,23-octaone] has a minimal effective concentration [1] of 1 to 10 µM and a minimal effective concentration [2] of 0.01 to 0.1 µM.
Work on `Cc1cnn(Cc2ccc(C[C@H]3OC(=O)[C@H](CC(C)C)N(C)C(=O)[C@@H](C)OC(=O)[C@H](CC(C)C)N(C)C(=O)[C@@H](Cc4ccc(Cn5cc(C)cn5)cc4)OC(=O)[C@H](CC(C)C)N(C)C(=O)[C@@H](C)OC(=O)[C@H](CC(C)C)N(C)C3=O)cc2)c1` [Example 1b-24, (3S,6R,9S,12R,15S,18R,21S,24R)-3,9,15,21-tetraisobutyl-4,6,10,16,18,22-hexamethyl-12,24-bis[[4-[(4-methylpyrazol-1-yl)methyl]phenyl]methyl]-1,7,13,19-tetraoxa-4,10,16,22-tetrazacyclotetracosane-2,5,8,11,14,17,20,23-octaone] yielded a minimal effective concentration [1] of 1 to 10 µM and a minimal effective concentration [2] of 0.001 to 0.01 µM.
Work on `Cc1cc(C)n(Cc2ccc(C[C@H]3OC(=O)[C@H](CC(C)C)N(C)C(=O)[C@@H](C)OC(=O)[C@H](CC(C)C)N(C)C(=O)[C@@H](Cc4ccc(Cn5nc(C)cc5C)cc4)OC(=O)[C@H](CC(C)C)N(C)C(=O)[C@@H](C)OC(=O)[C@H](CC(C)C)N(C)C3=O)cc2)n1` [Example 1b-29, (3S,6R,9S,12R,15S,18R,21S,24R)-6,18-bis[[4-[(3,5-dimethylpyrazol-1-yl)methyl]phenyl]methyl]-3,9,15,21-tetraisobutyl-4,10,12,16,22,24-hexamethyl-1,7,13,19-tetraoxa-4,10,16,22-tetrazacyclotetracosane-2,5,8,11,14,17,20,23-octaone] yielded a minimal effective concentration [1] of 1 to 10 µM and a minimal effective concentration [2] of 0.001 to 0.01 µM.
Molecule `COc1cnn(Cc2ccc(C[C@H]3OC(=O)[C@H](CC(C)C)N(C)C(=O)[C@@H](C)OC(=O)[C@H](CC(C)C)N(C)C(=O)[C@@H](Cc4ccc(Cn5cc(OC)cn5)cc4)OC(=O)[C@H](CC(C)C)N(C)C(=O)[C@@H](C)OC(=O)[C@H](CC(C)C)N(C)C3=O)cc2)c1` [Example 1b-52, (3S,6R,9S,12R,15S,18R,21S,24R)-3,9,15,21-tetraisobutyl-6,18-bis(4-((4-methoxy-1H-pyrazol-1-yl)methyl)benzyl)-4,10,12,16,22,24-hexamethyl-1,7,13,19-tetraoxa-4,10,16,22-tetraazacyclotetracosan-2,5,8,11,14,17,20,23-octaone] has a minimal effective concentration [1] of 1 to 10 µM and a minimal effective concentration [2] of 0.001 to 0.01 µM.
With `Cc1ccn(Cc2ccc(C[C@H]3OC(=O)[C@H](CC(C)C)N(C)C(=O)[C@@H](C)OC(=O)[C@H](CC(C)C)N(C)C(=O)[C@@H](Cc4ccc(Cn5ccc(C)n5)cc4)OC(=O)[C@H](CC(C)C)N(C)C(=O)[C@@H](C)OC(=O)[C@H](CC(C)C)N(C)C3=O)cc2)n1` [Example 1b-94, (3S,6R,9S,12R,15S,18R,21S,24R)-3,9,15,21-tetraisobutyl-4,6,10,16,18,22-hexamethyl-12,24-bis(4-((3-methyl-1H-pyrazol-1-yl)methyl)benzyl)-1,7,13,19-tetraoxa-4,10,16,22-tetraazacyclotetracosan-2,5,8,11,14,17,20,23-octaone] the minimal effective concentration [1] was no more than 1 µM and the minimal effective concentration [2] was 0.001 to 0.01 µM.
Molecule `CCc1ccn(Cc2ccc(C[C@H]3OC(=O)[C@H](CC(C)C)N(C)C(=O)[C@@H](C)OC(=O)[C@H](CC(C)C)N(C)C(=O)[C@@H](Cc4ccc(Cn5ccc(CC)n5)cc4)OC(=O)[C@H](CC(C)C)N(C)C(=O)[C@@H](C)OC(=O)[C@H](CC(C)C)N(C)C3=O)cc2)n1` [Example 1b-95, (3S,6R,9S,12R,15S,18R,21S,24R)-6,18-bis(4-((3-ethyl-1H-pyrazol-1-yl)methyl)benzyl)-3,9,15,21-tetraisobutyl-4,10,12,16,22,24-hexamethyl-1,7,13,19-tetraoxa-4,10,16,22-tetraazacyclotetracosan-2,5,8,11,14,17,20,23-octaone] has a minimal effective concentration [1] of 1 to 10 µM and a minimal effective concentration [2] of 0.001 to 0.01 µM.
`Cc1nn(Cc2ccc(C[C@H]3OC(=O)[C@H](CC(C)C)N(C)C(=O)[C@@H](C)OC(=O)[C@H](CC(C)C)N(C)C(=O)[C@@H](Cc4ccc(Cn5nc(C)c(F)c5C)cc4)OC(=O)[C@H](CC(C)C)N(C)C(=O)[C@@H](C)OC(=O)[C@H](CC(C)C)N(C)C3=O)cc2)c(C)c1F` [Example 1b-110, (3S,6R,9S,12R,15S,18R,21S,24R)-6,18-bis(4-((4-fluoro-3,5-dimethyl-1H-pyrazol-1-yl)methyl)benzyl)-3,9,15,21-tetraisobutyl-4,10,12,16,22,24-hexamethyl-1,7,13,19-tetraoxa-4,10,16,22-tetraazacyclotetracosan-2,5,8,11,14,17,20,23-octaone] was tested, and the minimal effective concentration [1] was 1 to 10 µM and the minimal effective concentration [2] was 0.01 to 0.1 µM.
In the case of `CC(C)C[C@H]1C(=O)O[C@H](Cc2ccc(Cn3nc(C4CC4)c(N)c3C3CC3)cc2)C(=O)N(C)[C@@H](CC(C)C)C(=O)O[C@H](C)C(=O)N(C)[C@@H](CC(C)C)C(=O)O[C@H](Cc2ccc(Cn3nc(C4CC4)c(N)c3C3CC3)cc2)C(=O)N(C)[C@@H](CC(C)C)C(=O)O[C@H](C)C(=O)N1C` [Example 1b-145, (3S,6R,9S,12R,15S,18R,21S,24R)-6,18-bis(4-((4-amino-3,5-dicyclopropyl-1H-pyrazol-1-yl)methyl)benzyl)-3,9,15,21-tetraisobutyl-4,10,12,16,22,24-hexamethyl-1,7,13,19-tetraoxa-4,10,16,22-tetraazacyclotetracosan-2,5,8,11,14,17,20,23-octaone], the minimal effective concentration [1] is reported as 1 to 10 µM and the minimal effective concentration [2] is reported as 0.001 to 0.01 µM.
`CC(C)C[C@H]1C(=O)O[C@H](Cc2ccc(Cn3nccc3C3(C)CCOCC3)cc2)C(=O)N(C)[C@@H](CC(C)C)C(=O)O[C@H](C)C(=O)N(C)[C@@H](CC(C)C)C(=O)O[C@H](Cc2ccc(Cn3nccc3C3(C)CCOCC3)cc2)C(=O)N(C)[C@@H](CC(C)C)C(=O)O[C@H](C)C(=O)N1C` [Example 1b-213, (3S,6R,9S,12R,15S,18R,21S,24R)-3,9,15,21-tetraisobutyl-4,6,10,16,18,22-hexamethyl-12,24-bis(4-((5-(4-methyltetrahydro-2H-pyran-4-yl)-1H-pyrazol-1-yl)methyl)benzyl)-1,7,13,19-tetraoxa-4,10,16,22-tetraazacyclotetracosan-2,5,8,11,14,17,20,23-octaone] showed a minimal effective concentration [1] of 1 to 10 µM and a minimal effective concentration [2] of 0.001 to 0.01 µM.
With `COC(C)(C)Cc1ccnn1Cc1ccc(C[C@H]2OC(=O)[C@H](CC(C)C)N(C)C(=O)[C@@H](C)OC(=O)[C@H](CC(C)C)N(C)C(=O)[C@@H](Cc3ccc(Cn4nccc4CC(C)(C)OC)cc3)OC(=O)[C@H](CC(C)C)N(C)C(=O)[C@@H](C)OC(=O)[C@H](CC(C)C)N(C)C2=O)cc1` [Example 1b-214, (3S,6R,9S,12R,15S,18R,21S,24R)-3,9,15,21-tetraisobutyl-6,18-bis(4-((5-(2-methoxy-2-methylpropyl)-1H-pyrazol-1-yl)methyl)benzyl)-4,10,12,16,22,24-hexamethyl-1,7,13,19-tetraoxa-4,10,16,22-tetraazacyclotetracosan-2,5,8,11,14,17,20,23-octaone] the minimal effective concentration [1] was 1 to 10 µM and the minimal effective concentration [2] was 0.01 to 0.1 µM.
With `Cc1cnn(Cc2ccc(C[C@H]3OC(=O)[C@H](CC(C)C)N(C)C(=O)[C@@H](C)OC(=O)[C@H](CC(C)C)N(C)C(=O)[C@@H](Cc4ccccc4)OC(=O)[C@H](CC(C)C)N(C)C(=O)[C@@H](C)OC(=O)[C@H](CC(C)C)N(C)C3=O)cc2)c1` [Example 2-2, (3S,6R,9S,12R,15S,18R,21S,24R)-6-benzyl-3,9,15,21-tetraisobutyl-4,10,12,16,22,24-hexamethyl-18-[[4-[(4-methylpyrazol-1-yl)methyl]phenyl]methyl]-1,7,13,19-tetraoxa-4,10,16,22-tetrazacyclotetracosane-2,5,8,11,14,17,20,23-octaone] the minimal effective concentration [1] was 1 to 10 µM and the minimal effective concentration [2] was 0.001 to 0.01 µM.
`Cc1cc(C)n(Cc2ccc(C[C@H]3OC(=O)[C@H](CC(C)C)N(C)C(=O)[C@@H](C)OC(=O)[C@H](CC(C)C)N(C)C(=O)[C@@H](Cc4ccccc4)OC(=O)[C@H](CC(C)C)N(C)C(=O)[C@@H](C)OC(=O)[C@H](CC(C)C)N(C)C3=O)cc2)n1` [Example 2-7, (3S,6R,9S,12R,15S,18R,21S,24R)-6-benzyl-18-[[4-[(3,5-dimethylpyrazol-1-yl)methyl]phenyl]methyl]-3,9,15,21-tetraisobutyl-4,10,12,16,22,24-hexamethyl-1,7,13,19-tetraoxa-4,10,16,22-tetrazacyclotetracosane-2,5,8,11,14,17,20,23-octaone] showed a minimal effective concentration [1] of 1 to 10 µM and a minimal effective concentration [2] of 0.001 to 0.01 µM.
